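Cultured in 96-well plates, cells were exposed to test compound for 48 hours across five concentrations. GI50 = concentration required for 50% inhibition of growth.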 Calls of active or inactive are those of the source. Rule as the data show it: active = GI50 up to about 1.1 µM and inactive = higher.
Columns and labels:
Assay in all cases: NCI anticancer screen, dose series, 48 h
SF-295 = test system: SF-295
SR = test system: SR
LXFL 529 = test system: LXFL 529
HCC 2998 = test system: HCC 2998
OVCAR-5 = test system: OVCAR-5
SNB-19 = test system: SNB-19
786-0 = test system: 786-0
HOP-62 = test system: HOP-62
SF-539 = test system: SF-539
SN12C = test system: SN12C
ACHN = test system: ACHN
COLO 205 = test system: COLO 205
SK-MEL-2 = test system: SK-MEL-2
HT-29 = test system: HT-29
OVCAR-8 = test system: OVCAR-8
EKVX = test system: EKVX
HL-60 = test system: HL-60
CCRF-CEM = test system: CCRF-CEM
MDA-MB-435 = test system: MDA-MB-435
NCI/ADR-RES = test system: NCI/ADR-RES

Row | SMILES | GI50 (SF-295) | GI50 (SR) | GI50 (LXFL 529) | GI50 (HCC 2998) | GI50 (OVCAR-5) | GI50 (SNB-19) | GI50 (786-0) | GI50 (HOP-62) | GI50 (SF-539) | GI50 (SN12C) | GI50 (ACHN) | GI50 (COLO 205) | GI50 (SK-MEL-2) | GI50 (HT-29) | GI50 (OVCAR-8) | GI50 (EKVX) | GI50 (HL-60) | GI50 (CCRF-CEM) | GI50 (MDA-MB-435) | GI50 (NCI/ADR-RES)
1 | COc1ccccc1NC(=O)CC(=O)NNCC(=O)Nc1nnc(-c2ccccc2)o1 | > 100 µM (inactive) | > 100 µM (inactive) | > 100 µM (inactive) | > 100 µM (inactive) | > 100 µM (inactive) | > 100 µM (inactive) | > 100 µM (inactive) | > 100 µM (inactive) | > 100 µM (inactive) | > 100 µM (inactive) | > 100 µM (inactive) | > 100 µM (inactive) | > 100 µM (inactive) | > 100 µM (inactive) | > 100 µM (inactive) | > 100 µM (inactive) |  |  |  | 
2 | O=C(/C=C1/NC(=O)CS1)Nc1ccccc1 | > 100 µM (inactive) |  | > 100 µM (inactive) | > 100 µM (inactive) | > 100 µM (inactive) | > 100 µM (inactive) | > 100 µM (inactive) | > 100 µM (inactive) | > 100 µM (inactive) | > 100 µM (inactive) |  | > 100 µM (inactive) | 89.5 µM (inactive) | > 100 µM (inactive) | > 100 µM (inactive) | > 100 µM (inactive) | > 100 µM (inactive) | > 100 µM (inactive) |  | 
3 | Nc1ccc(C(=O)N/C(=C\c2cccc([N+](=O)[O-])c2)c2nc3cc(Cl)ccc3[nH]2)cc1 | > 100 µM (inactive) | > 100 µM (inactive) | 31 µM (inactive) | > 100 µM (inactive) | > 100 µM (inactive) | > 100 µM (inactive) | 92 µM (inactive) |  | > 100 µM (inactive) | > 100 µM (inactive) | > 100 µM (inactive) | > 100 µM (inactive) | > 100 µM (inactive) | > 100 µM (inactive) | > 100 µM (inactive) | > 100 µM (inactive) |  | > 100 µM (inactive) |  | 
4 | C=CCN(N=O)C(=O)N(CCCC(NC(C)=O)C(=O)NCc1ccccc1)Cc1ccccc1 (stereo unspecified) | 38.5 µM (inactive) |  | 46.1 µM (inactive) |  | > 100 µM (inactive) | 82.6 µM (inactive) | 80.5 µM (inactive) | > 100 µM (inactive) | 37.2 µM (inactive) | 67.6 µM (inactive) | 54.7 µM (inactive) | 90.4 µM (inactive) | > 100 µM (inactive) | 24.2 µM (inactive) | 67.3 µM (inactive) | 58.2 µM (inactive) | 19.6 µM (inactive) | 28.2 µM (inactive) |  | 
5 | CC1(C)OC(COCCOCCCCCO)C(COCCOCCCCCO)O1 (stereo unspecified) | > 100 µM (inactive) | > 100 µM (inactive) | > 100 µM (inactive) | > 100 µM (inactive) | > 100 µM (inactive) | > 100 µM (inactive) | > 100 µM (inactive) | > 100 µM (inactive) |  | > 100 µM (inactive) | > 100 µM (inactive) | > 100 µM (inactive) | > 100 µM (inactive) | > 100 µM (inactive) | > 100 µM (inactive) | > 100 µM (inactive) | > 10 µM (inactive) |  |  | 
6 | CCOc1ccc(/N=C/c2cccc3cccnc23)cc1 | > 100 µM (inactive) |  | 13.2 µM (inactive) | > 100 µM (inactive) | > 100 µM (inactive) | > 100 µM (inactive) | > 100 µM (inactive) | > 100 µM (inactive) | > 100 µM (inactive) | > 100 µM (inactive) | > 100 µM (inactive) | > 100 µM (inactive) | > 100 µM (inactive) | > 100 µM (inactive) | > 100 µM (inactive) | > 100 µM (inactive) | 25.6 µM (inactive) | 62.5 µM (inactive) |  | 
7 | C=CCOc1ccc2c(C)cc(=O)oc2c1C | 23.3 µM (inactive) | 37.8 µM (inactive) |  | 33 µM (inactive) | > 100 µM (inactive) | 61.4 µM (inactive) | 84.9 µM (inactive) | > 100 µM (inactive) | 41.2 µM (inactive) | 98.4 µM (inactive) | 51.8 µM (inactive) | 44.3 µM (inactive) | > 100 µM (inactive) | 59.2 µM (inactive) | 56.8 µM (inactive) | 27.4 µM (inactive) | 32.4 µM (inactive) | 45.4 µM (inactive) | 44.2 µM (inactive) | 46.8 µM (inactive)
8 | Cc1cc2c(c(C(=O)O)c1C)-c1cccc(Cl)c1C2=O | > 100 µM (inactive) |  | > 100 µM (inactive) | > 100 µM (inactive) | > 100 µM (inactive) | > 100 µM (inactive) | > 100 µM (inactive) | > 100 µM (inactive) |  | > 100 µM (inactive) | > 100 µM (inactive) | > 100 µM (inactive) | > 100 µM (inactive) | > 100 µM (inactive) | > 100 µM (inactive) | > 100 µM (inactive) |  | > 100 µM (inactive) |  | 
9 | CC(=O)CC1(O)C(=O)c2c(Br)sc(Br)c2C1=O | > 100 µM (inactive) | 21.1 µM (inactive) |  | 17.8 µM (inactive) | 17.6 µM (inactive) | 55.5 µM (inactive) | 23.7 µM (inactive) | 29 µM (inactive) | 23.6 µM (inactive) | 19.4 µM (inactive) | 34.3 µM (inactive) | 18.7 µM (inactive) | 22.2 µM (inactive) | 21.7 µM (inactive) | 23 µM (inactive) | 20 µM (inactive) | 20.6 µM (inactive) | 15.1 µM (inactive) | 20 µM (inactive) | 36.5 µM (inactive)
10 | C=CCN(N=O)C(=O)N(CCC)CCCC(NC(C)=O)C(=O)NCc1ccccc1 (stereo unspecified) | > 100 µM (inactive) |  | > 100 µM (inactive) |  | > 100 µM (inactive) | > 100 µM (inactive) | > 100 µM (inactive) | > 100 µM (inactive) | > 100 µM (inactive) | > 100 µM (inactive) | > 100 µM (inactive) | > 100 µM (inactive) | > 100 µM (inactive) | > 100 µM (inactive) | > 100 µM (inactive) | > 100 µM (inactive) | > 100 µM (inactive) | > 100 µM (inactive) |  | 
11 | Cc1cc(Cl)ccc1NC(=O)CCCC(=O)C1CCC/C1=N\NC(=O)CC#N (stereo unspecified) | > 100 µM (inactive) |  | > 100 µM (inactive) |  | > 100 µM (inactive) | > 100 µM (inactive) | > 100 µM (inactive) |  | > 100 µM (inactive) | > 100 µM (inactive) | > 100 µM (inactive) | > 100 µM (inactive) | > 100 µM (inactive) | > 100 µM (inactive) | > 100 µM (inactive) | > 100 µM (inactive) | > 100 µM (inactive) | > 100 µM (inactive) |  | 
12 | COC(=O)c1ccc(C(=O)OC)c2nc3cc(C)ccc3nc12 | > 100 µM (inactive) |  | > 100 µM (inactive) | > 100 µM (inactive) | > 100 µM (inactive) | > 100 µM (inactive) | > 100 µM (inactive) | > 100 µM (inactive) | > 100 µM (inactive) | > 100 µM (inactive) | > 100 µM (inactive) | > 100 µM (inactive) | > 100 µM (inactive) | > 100 µM (inactive) | > 100 µM (inactive) | > 100 µM (inactive) | > 100 µM (inactive) | > 100 µM (inactive) |  | 
13 | CC1CC(c2ccccc2)=Nc2ccccc2S1(=O)=O (stereo unspecified) | 20.2 µM (inactive) |  | 15.3 µM (inactive) | 5.2 µM (inactive) | 18.6 µM (inactive) | 14.3 µM (inactive) | 17.2 µM (inactive) | 20.3 µM (inactive) | 18.4 µM (inactive) | 16.6 µM (inactive) | 16 µM (inactive) | 20.4 µM (inactive) | 14.8 µM (inactive) |  | 21.1 µM (inactive) | 20.4 µM (inactive) | 21 µM (inactive) | 19.7 µM (inactive) |  | 
14 | COc1ccc(NC(C)=O)cc1N1C(=O)/C(=C\c2cccc(Oc3ccccc3)c2)S(=O)(=O)C1c1ccccc1 (stereo unspecified) | 53.1 µM (inactive) | 4.21 µM (inactive) |  | > 100 µM (inactive) | > 100 µM (inactive) | 46.1 µM (inactive) | 32.2 µM (inactive) | 71.6 µM (inactive) | 20.7 µM (inactive) | 24.2 µM (inactive) | 39.4 µM (inactive) | 58.2 µM (inactive) | 69.5 µM (inactive) | 18.7 µM (inactive) | 35.1 µM (inactive) | 41.6 µM (inactive) | 20.4 µM (inactive) | 16.1 µM (inactive) | 33.8 µM (inactive) | 27.9 µM (inactive)
15 | C/C(=C\[C@H]1C[C@@H]([C@@H]2CC[C@]34C[C@]23C=C[C@@H]2[C@@]3(C)CC=C5C[C@@H](c6ccccc6)OC[C@]5(C)[C@@H]3C[C@@H](O)[C@]24C)C(=O)O1)CO [DICHAPETALIN A] | 1.34 µM (inactive) | < 0.01 µM (active) |  | 6 µM (inactive) | 9.82 µM (inactive) | 11.8 µM (inactive) | 4.38 µM (inactive) | 10.2 µM (inactive) | 5.08 µM (inactive) | 1.91 µM (inactive) | 3.33 µM (inactive) | 2.01 µM (inactive) | 31.4 µM (inactive) | 2.01 µM (inactive) | 4.91 µM (inactive) | 1.51 µM (inactive) | 1.2 µM (inactive) | 1.04 µM (active) | 2.48 µM (inactive) | 3.08 µM (inactive)
16 | O=C(O)CCCCC1CCSS1 (stereo not drawn) [LIPOIC ACID, ALPHA] | > 100 µM (inactive) | > 100 µM (inactive) |  | 72.6 µM (inactive) | > 100 µM (inactive) | > 100 µM (inactive) | > 100 µM (inactive) | > 100 µM (inactive) | > 100 µM (inactive) | > 10 µM (inactive) | > 100 µM (inactive) | > 100 µM (inactive) | > 100 µM (inactive) | > 100 µM (inactive) | > 100 µM (inactive) | > 100 µM (inactive) | 34.3 µM (inactive) | > 100 µM (inactive) | > 100 µM (inactive) | > 100 µM (inactive)

From ChEMBL document CHEMBL1201862, “PubChem BioAssay data set” (2004)
